{
  "source": "patent US20250213560A1",
  "about": "“NITROGEN-CONTAINING HETEROCYCLIC COMPOUNDS HAVING PHENYL GROUP AND USES THEREOF” (BNH RESEARCH CO., LTD., priority 2022, published 2025)",
  "key": {"[1]": {"test_system": "rodent (rat) model of post-traumatic stress disorder", "assay": "Post-traumatic stress disorder animal model, freezing time", "format": "in vivo", "conditions": "PTSD rats, intraperitoneal 25 mg/kg, checked at 3-day intervals, compared to control group", "protocol": "The animals were obtained from the DBL. Animals are obtained 7 days before the test start. Twenty male SD-rats aged about 7 weeks were used. Animals were maintained in conventional environmental conditions according to the 12/12 hours light-dark cycle in the colony room, with access to food and water ad libitum. The rats were acclimatized to their new housing cage over a period of 7 days. The animals were carried out for all tests. All experiments were performed in accordance with the Guide for the Care and Use of Laboratory Animals, and all efforts were made to minimize animal suffering. Weight was measured at 3-day intervals from Day 7.\nThis protocol involves two times exposure to foot shock without an opportunity of escape.\nThe weight was measured three hours before the experiment. The temperature of the laboratory was maintained at 22° C. The animals were placed in the dark laboratory space for 10 minutes to adapt. The animals were each placed in the first room. […]\nThe weight was measured three hours before the experiment. […]\nFor the freezing check, 7 days after the initial foot shock protocol, the rats were placed in the first compartment with sandpaper of the apparatus for 5 minutes (no foot shock) and the freezing behavior was recorded using shutavoid_v1803 program (Panlab, Spain) according to the manufacturer's instruction. […]"}, "GluN2B": {"test_system": "GluN2B", "assay": "GluN2B protein expression by Western blot in primary cortical neuron cells", "format": "cell-based, mouse", "outline": "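Mouse fetal cortical neurons (E17–18) cultured 13–14 days, then treated with BnH compounds for 24 h. GluN2B in RIPA lysates (20 μg/lane) measured by Western blot, normalized to β-actin, and expressed relative to vehicle set to 1 (n ≥ 3).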"}, "HDAC 1 to 9, and 11": {"test_system": "HDAC 1 to 9, and 11", "assay": "HDAC catalytic activity assay (fluorogenic substrate, 10-dose IC50)", "format": "biochemical", "conditions": "3-fold serial dilution starting at 100 μM, duplicates", "protocol": "The compound was resuspended in 100 mM DMSO and tested in a 10-dose IC50 with 3-fold serial dilution starting at 100 μM against HDACs 1-9, and 11. As reference compounds, Trichostatin A (TSA) and TMP269 were tested in a 10-dose IC50 with 3-fold serial dilution starting at 10 μM or 1 μM.\n10 μM Fluorogenic peptide from p53 residues 379-382 (RHKK (Ac) AMC) was used for the substrate for HDAC 1, 2, 3, and 6. 50 μM Fluorogenic HDAC Class2a Substrate (Trifluoroacetyl Lysine) was used for the substrate for HDAC 4, 5, 7, 9, and 11. 100 μM Fluorogenic peptide from p53 residues 379-382 (RHK (Ac) K (Ac) AMC) was used for the substrate for HDAC8.\nIC50 values were calculated using the GraphPad Prism 4 program based on a sigmoidal dose-response equation and the blank (DMSO) value concentration was entered as 1.00E-12 M for curve fitting.\nThe experiments were performed in duplicates."}},
  "note": "Entries after “also recorded” stand apart in the source; their conditions may differ.",
  "data": [
    {"smiles": "C[C@H]1CC[C@@H](C(=O)O)CN1C(=O)Cc1ccc(-c2cncnc2)cc1", "note": "[BnH12003, (3R,6S)-6-methyl-1-(2-(4-(pyrimidin-5-yl)phenyl)acetyl) piperidine-3-carboxylic acid]", "values": [
      {"measurement": "freezing time", "setting": "[1]", "value": "liberated such rodents from trauma at a significantly faster rate; also recorded: significant decrease in freezing time"},
      {"measurement": "GluN2B expression effect (in words)", "setting": "GluN2B; compared to vehicle / other compounds, Table 5", "value": "excellent effects"},
      {"measurement": "Western blot results Mean (GluN2B expression)", "setting": "GluN2B; relative value, vehicle set to 1, primary cortical neurons treated for 24 hours", "value": 2.141},
      {"measurement": "inhibitory effect on HDAC catalytic activities (10-dose IC50)", "setting": "HDAC 1 to 9, and 11", "value": "did not show any inhibitory effect"}
    ]}
  ]
}
